Some results are limits rather than exact numbers.

The target of the first experiment is T1, full length active recombinant SYK enzyme (Homo sapiens, UniProt P43405).
T1 construct: full length active recombinant SYK enzyme (Millipore, Calif.); purchased Millipore
The experiment is described as follows: Inhibition of Syk tyrosine phosphorylation activity (LANCE TR-FRET). It counts as biochemical. The conditions noted are these: Table 3; 1 nM SYK, 100 μM ATP; read-out: Syk IC50 code. The protocol:
The in vitro and in vivo human syk activities of the inventive compounds can be determined by various procedures known in the art, such as a test for their ability to inhibit the activity of human plasma syk. […] Inhibition of Syk Tyrosine Phosphorylation Activity Potency of candidate molecules for inhibiting syk tyrosine phosphorylation activity is assessed by measuring the ability of a test compound to inhibit syk-mediated tyrosine phosphorylation of a syk-specific substrate. SYK tyrosine phosphorylation activity is measured using the LANCETM Technology developed by Perkin Elmer Life and Analytical Sciences (Boston, Mass.). LANCETM refers to homogeneous time resolved fluorometry applications using techniques such as time-resolved fluorescence resonance energy transfer assay (TR-FRET) (see generally for procedures in Perkin Elmer Application Note-How to Optimize a Tyrosine Kinase Assay Using Time Resolved Fluorescence-Based LANCE Detection, wwww.perkinelmer.com/lifesciences). The assay principle involves detection of a phosphorylated substrate using energy transfer from a phosphospecific europium-labeled antibody to streptavidin-allophycocyanin as an acceptor. To test the ability of candidate molecules to inhibit SYK tyrosine phosphorylation activity, molecules are reconstituted in 30% DMSO and serially diluted 1:3 with the final dilution containing DMSO in the absence of the candidate molecule. The final DMSO concentration in the assay is 3%. Kinase assays are performed as a two part reaction. The first reaction is a kinase reaction and which comprises of a candidate molecule, full length active recombinant SYK enzyme (Millipore, Calif.) and biotin-labeled SYK-specific substrate biotin-[…]-OH. The second reaction involves termination of the kinase reaction and the simultaneous addition of the detection reagents-europium-labeled anti-phosphotyrosine reagent (Eu-W1024-PY100, Perkin Elmer, Boston, Mass.) and Streptavidin-Allophycocyanin detection reagent (SA-APC, Prozyme, Calif.). The kinase reaction is performed in a black U-bottom 96-well microtitre plate. […] The reaction is allowed to proceed for 1 hour at room temperature. […] The detection reagents are added to the reaction mixture at the following dilutions-1:500 for Eu-W1024-PY100 and 1:250 for SA-APC. The kinase reaction is terminated by the addition of 50 μL quench buffer containing the detection reagents. The detection is allowed to proceed for 1 hr at room temperature. Detection of the phosphorlated substrate in the absence and presence of inhibitors is measured in the TR-FRET instrument, Analyst HT ([…], Sunnyvale, Calif.) and the condition for measurements are set up using CriterionHost Release 2.0 ([…], Sunnyvale, Calif.). […] IC50s were derived by non-linear regression analysis.
As a reminder, the IC50 is the concentration needed to halve the response being measured. As for `OC1CCN(c2ccc(Nc3nc(NC4CCC4)c4cc[nH]c4n3)cc2)CC1` [Example 56, 1-(4-(4-(cyclobutylamino)-7H-pyrrolo[2,3-d]pyrimidin-2-ylamino)phenyl)piperidin-4-ol], the IC50 lay within 10 to 100 nM.
On the same count and under the same terms, for `CC(=O)N1CCN(c2ccc(Nc3ncc(Cl)c(N4CCC(CN)CC4)n3)cc2)CC1` [Example 122, 1-(4-(4-(4-(4-(aminomethyl)piperidin-1-yl)-5-chloropyrimidin-2-ylamino)phenyl)piperazin-1-yl)ethanone] the value was 10 to 100 nM.
Still for that read-out and setting: for `CN(C(=O)C1CC1)c1ccc(Nc2nc(NC3CC3)c3cc[nH]c3n2)cc1` [Example 81, N-(4-(4-(cyclopropylamino)-7H-pyrrolo[2,3-d]pyrimidin-2-ylamino)phenyl)-N-methylcyclopropanecarboxamide] the value was 100 to 1000 nM; for `CN(C)CCCNC(=O)c1ccc(Nc2nc(NC3CCC3)c3cc[nH]c3n2)cc1` [Example 85], 100 to 1000 nM.
On the same count and under the same terms, for `CCCCOC(=O)CC1CCN(c2nc(Nc3ccc4c(c3)CCC(=O)N4)nc3[nH]ccc23)CC1` [Example 119, Butyl 2-(1-(2-(2-oxo-1,2,3,4-tetrahydroquinolin-6-ylamino)-7H-pyrrolo[2,3-d]pyrimidin-4-yl)piperidin-4-yl)acetate] the value was more than 1000 nM; for `CC(C)(CN)CNc1nc(Nc2ccc3cn[nH]c3c2)nc2[nH]ccc12` [Example 60, N4-(3-amino-2,2-dimethylpropyl)-N2-(1H-indazol-6-yl)-7H-pyrrolo[2,3-d]pyrimidine-2,4-diamine], more than 1000 nM.
Take `CC(=O)N1CCN(c2ccc(Nc3ncc(F)c(N4CCC(NC(=O)OCc5ccccc5)CC4)n3)cc2)CC1` [Example 127, Benzyl 1-(2-(4-(4-acetylpiperazin-1-yl)phenylamino)-5-fluoropyrimidin-4-yl)piperidin-4-ylcarbamate]: the IC50 is more than 1000 nM.
Turning to `CC(=O)N1CCN(c2ccc(Nc3ncc(F)c(N4CCNCC4)n3)cc2)CC1` [Example 124, 1-(4-(4-(5-fluoro-4-(piperazin-1-yl)pyrimidin-2-ylamino)phenyl)piperazin-1-yl)ethanone], the IC50 is more than 1000 nM.
On the same count and under the same terms, for `NC(=O)c1ccc(Nc2nc(NC3CC3)c3c(-c4ccncc4)c[nH]c3n2)cc1` [Example 101, 4-(4-(cyclopropylamino)-5-(pyridin-4-yl)-7H-pyrrolo[2,3-d]pyrimidin-2-ylamino)benzamide] the value was 10 to 100 nM.
Consider `CC(=O)N(C)c1ccc(Nc2nc(Nc3cccc(S(N)(=O)=O)c3)c3cc[nH]c3n2)cc1` [Example 68, N-(4-(4-(3-aminosulfonyl-phenylamino)-7H-pyrrolo[2,3-d]pyrimidin-2-ylamino)phenyl)-N-methylacetamide], for which the 50% inhibitory concentration (IC50) was in the range of 100 to 1000 nM.
Consider `NCCOCCNc1nc(Nc2ccc3cn[nH]c3c2)nc2[nH]ccc12` [Example 92, N^4-(2-2-(aminoethoxy)ethyl)-N^2-(1H-indazol-6-ylamino)-7H-pyrrolo[2,3-d]pyrimidine-2,4-diamine], for which the IC50 was 10 to 100 nM.
Still for that read-out and setting: the value for `O=C(O)CC1CCN(c2nc(Nc3ccc4c(c3)CCC(=O)N4)nc3[nH]ccc23)CC1` [Example 120, 2-(1-(2-(2-oxo-1,2,3,4-tetrahydroquinolin-6-ylamino)-7H-pyrrolo[2,3-d]pyrimidin-4-yl)piperidin-4-yl)acetic acid] was more than 1000 nM.
Take `CC(=O)N(C)c1ccc(Nc2nc(NCCCCN)c3cc[nH]c3n2)cc1` [Example 62, N-(4-(4-(4-aminobutylamino)-7H-pyrrolo[2,3-d]pyrimidin-2-ylamino)phenyl)-N-methylacetamide]: the IC50 was in the range of 10 to 100 nM.
On to `CN(C)CC(=O)N(C)c1ccc(Nc2nc(NC3CCC3)c3cc[nH]c3n2)cc1` [Example 84, N-(4-(4-(cyclobutylamino)-7H-pyrrolo[2,3-d]pyrimidin-2-ylamino)phenyl)-2-(dimethlamino)-N-methylacetamide], for which the IC50 lay within 100 to 1000 nM.
Regarding `N#Cc1c[nH]c2nc(Nc3ccc(S(N)(=O)=O)cc3)nc(NC3CC3)c12` [Example 106, 4-(5-cyano-4-(cyclopropylamino)-7H-pyrrolo[2,3-d]pyrimidin-2-ylamino)benzenesulfonamide], the half-maximal inhibitory concentration (IC50) is 1 to 10 nM.
With `OCCNc1nc(Nc2ccc3cn[nH]c3c2)nc2[nH]ccc12` [Example 91, N^2-(1H-indazol-6-ylamino)-N^4-(2-hydroxyethyl)-7H-pyrrolo[2,3-d]pyrimidine-2,4-diamine], the IC50 was in the range of 10 to 100 nM.
Take `CN(C)CC1CCN(c2nc(Nc3ccc(C(N)=O)cc3)ncc2F)CC1` [Example 133, 4-(4-(4-((dimethylamino)methyl)piperidin-1-yl)-5-fluoropyrimidin-2-ylamino)benzamide]: the IC50 was more than 1000 nM.
Same read-out and setting: for `COC(=O)N(C)c1ccc(Nc2nc(NC3CC3)c3cc[nH]c3n2)cc1` [Example 73] the value was 100 to 1000 nM.
On the same count and under the same terms, for `CC(=O)N1CCN(c2ccc(Nc3ncc(F)c(N4CCC(NC(N)=O)CC4)n3)cc2)CC1` [Example 129, 1-(1-(2-(4-(4-acetylpiperazin-1-yl)phenylamino)-5-fluoropyrimidin-4-yl)piperidin-4-yl)urea] the value was more than 1000 nM; for `CC(=O)N(C)c1ccc(Nc2ncc(F)c(N3CCC(CNC(=O)OC(C)(C)C)CC3)n2)cc1` [Example 28, tert-butyl (1-(5-fluoro-2-(4-(N-methylacetamido)phenylamino)pyrimidin-4-yl)piperidin-4-yl)methylcarbamate], more than 1000 nM; for `CN(C(=O)CO)c1ccc(Nc2nc(NC3CC3)c3cc[nH]c3n2)cc1` [Example 75, N-(4-(4-(cyclopropylamino)-7H-pyrrolo[2,3-d]pyrimidin-2-ylamino)phenyl)-2-hydroxy-N-methylacetamide], 10 to 100 nM.
Take `CC(=O)N(C)c1ccc(Nc2nc(NC3CC3)c3c(-c4ccncc4)c[nH]c3n2)cc1` [Example 47, N-(4-(4-(cyclopropylamino)-5-(pyridin-4-yl)-7H-pyrrolo[2,3-d]pyrimidin-2-ylamino)phenyl)-N-methylacetamide]: the IC50 lay within 10 to 100 nM.
The same measure, in the same setting: for `Cc1cc2c(NC3CCC3)nc(Nc3ccc4cn[nH]c4c3)nc2[nH]1` [Example 59, N4-cyclobutyl-N2-(1H-indazol-6-yl)-6-methyl-7H-pyrrolo[2,3-d]pyrimidine-2,4-diamine] the value was more than 1000 nM; for `CC(=O)N1CCN(c2ccc(Nc3nc(NC4CCC(N)CC4)c4cc[nH]c4n3)cc2)CC1` (centres unmarked) [Example 66, 1-(4-(4-(4-(4-aminocyclohexylamino)-7H-pyrrolo[2,3-d]pyrimidin-2-ylamino)phenyl)piperazin-1-yl)ethanone], 10 to 100 nM; for `N#Cc1c[nH]c2nc(Nc3ccc4cn[nH]c4c3)nc(NC3CC3)c12` [Example 40, 2-(1H-indazol-6-ylamino)-4-(cyclopropylamino)-7H-pyrrolo[2,3-d]pyrimidine-5-carbonitrile], 10 to 100 nM.

The experiment is the same for the next values; noted with them: Table 4; 1 nM SYK, 100 μM ATP; read-out: syk IC50.
Take `CC(C)(C)OC(=O)NCC1CCCCN1c1nc(Nc2ccc3cn[nH]c3c2)ncc1F` (centres unmarked) [Example 35, tert-butyl (1-(2-(1H-indazol-6-ylamino)-5-fluoropyrimidin-4-yl)piperidin-2-yl)methylcarbamate]: the half-inhibitory concentration (IC50) was more than 1000 nM.
Consider `NC[C@@H]1CCCN1c1nc(Nc2ccc3cn[nH]c3c2)nc2[nH]ccc12` [(S)-4-(2-(aminomethyl)pyrrolidin-1-yl)-N-(1H-indazol-6-yl)-7H-pyrrolo[2,3-d]pyrimidin-2-amine], for which the IC50 is more than 1000 nM.
Still for that read-out and setting: for `CC(=O)N1CCN(c2ccc(Nc3ncc(C(N)=O)c(N4CCCC(CO)C4)n3)cc2)CC1` (centres unmarked) [2-(4-(4-acetylpiperazin-1-yl)phenylamino)-4-(3-(hydroxymethyl)piperidin-1-yl)pyrimidine-5-carboxamide] the value was 100 to 1000 nM.
On to `NCC1CCCCN1c1nc(Nc2ccc3cn[nH]c3c2)ncc1F` (centres unmarked) [Example 36, N-(4-(2-(aminomethyl)piperidin-1-yl)-5-fluoropyrimidin-2-yl)-1H-indazol-6-amine], for which the half-maximal inhibitory concentration (IC50) is more than 1000 nM.
The same measure, in the same setting: the value for `CC(=O)N1CCN(c2ccc(Nc3ncc(F)c(N4CCCC(C(N)=O)C4)n3)cc2)CC1` (centres unmarked) [Example 27, 1-(2-(4-(4-acetylpiperazin-1-yl)phenylamino)-5-fluoropyrimidin-4-yl)piperidine-3-carboxamide] was more than 1000 nM; that for `CC(=O)N1CCN(c2ccc(Nc3ncc(C(N)=O)c(N4CCCCC4CCO)n3)cc2)CC1` (centres unmarked) [2-(4-(4-acetylpiperazin-1-yl)phenylamino)-4-(2-(2-hydroxyethyl)piperidin-1-yl)pyrimidine-5-carboxamide] was more than 1000 nM.
Still for that read-out and setting: for `CC(=O)N(C)c1ccc(Nc2ncc(F)c(N3CCC(CNC(=O)OC(C)(C)C)CC3)n2)cc1` [Example 28, tert-butyl (1-(5-fluoro-2-(4-(N-methylacetamido)phenylamino)pyrimidin-4-yl)piperidin-4-yl)methylcarbamate] the value was more than 1000 nM.

For the origin of these results see patent publication US9139581B2 (PORTOLA PHARMACEUTICALS, INC., priority 2008, dated 2015).
